The values below come from PubChem BioAssay AID248 (DTP/NCI, 2004).

This experiment relates to L1210 leukemia ip in BDF1 mice, survival T/C. The experiment in a line: NCI In Vivo Anticancer Drug Screen. Data for tumor model L1210 Leukemia (intraperitoneal) in B6D2F1 (BDF1) mice. The settings on record: endpoint: mean survival time, higher = longer survival. In short, it runs like this:
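Ratio derived from survival: compound-dosed mice over vehicle-dosed mice, all bearing a transplantable tumor.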

Setting [1] is: dose: 100.0 mg/kg/injection, schedule: Q01DX001 (ip), vehicle: Klucel (hydroxypropylcellulose) (HPC).
Setting [2] is: dose: 200.0 mg/kg/injection, schedule: Q01DX001 (ip), vehicle: Klucel (hydroxypropylcellulose) (HPC).
The mark [3] stands for this setting: dose: 100.0 mg/kg/injection, schedule: Q01DX009 (ip), vehicle: Klucel (hydroxypropylcellulose) (HPC).
The mark [4] stands for this setting: dose: 100.0 mg/kg/injection, schedule: Q04DX003 (ip), vehicle: Klucel (hydroxypropylcellulose) (HPC).
The mark [5] stands for this setting: dose: 200.0 mg/kg/injection, schedule: Q01DX009 (ip), vehicle: Klucel (hydroxypropylcellulose) (HPC).
Setting [6] is: dose: 200.0 mg/kg/injection, schedule: Q04DX003 (ip), vehicle: Klucel (hydroxypropylcellulose) (HPC).
Where [7] appears, read: dose: 400.0 mg/kg/injection, schedule: Q01DX009 (ip), vehicle: Klucel (hydroxypropylcellulose) (HPC).
[8] abbreviates: dose: 400.0 mg/kg/injection, schedule: Q04DX003 (ip), vehicle: Klucel (hydroxypropylcellulose) (HPC).
The mark [9] stands for this setting: dose: 100.0 mg/kg/injection, schedule: Q01DX009 (ip), vehicle: saline with Tween-80.
The mark [10] stands for this setting: dose: 200.0 mg/kg/injection, schedule: Q01DX009 (ip), vehicle: saline with Tween-80.

Toxic doses and inconclusive results are not listed.

Regarding `O=C(Nc1ccc(NS(=O)(=O)c2ccccc2)cc1Cl)c1ccccc1`, the T/C was 104 % of control (dose: 50.0 mg/kg/injection, schedule: Q01DX001 (ip), vehicle: Klucel (hydroxypropylcellulose) (HPC)); 108 % of control under setting [1]; 90 % of control under setting [2].
As for `Cc1ccccc1C(Br)C1=CC(C)(C)c2ccccc2C1=O` (configuration not stated), the T/C under setting [3] is 101 % of control; the T/C under setting [4] is 97 % of control; the T/C under setting [5] was 105 % of control; the T/C under setting [6] is 92 % of control; the T/C under setting [7] is 95 % of control; the T/C under setting [8] is 90 % of control.
Take `CS(=O)(=O)CCN(N=O)C(=N)N[N+](=O)[O-]`: the T/C was 116 % of control (dose: 5.1 mg/kg/injection, schedule: Q01DX Z (ip), vehicle: carboxymethylcellulose (CMC)); 116 % of control (dose: 7.7 mg/kg/injection, schedule: Q01DX Z (ip), vehicle: carboxymethylcellulose (CMC)); 121 % of control (dose: 8.8 mg/kg/injection, schedule: Q01DX Z (ip), vehicle: methylcellulose (MC)); 116 % of control (dose: 11.7 mg/kg/injection, schedule: Q01DX Z (ip), vehicle: carboxymethylcellulose (CMC)); 101 % of control (dose: 12.0 mg/kg/injection, schedule: Q01DX Z (sc), vehicle: carboxymethylcellulose (CMC)); 123 % of control (dose: 17.7 mg/kg/injection, schedule: Q01DX Z (ip), vehicle: carboxymethylcellulose (CMC)). Also, the T/C is, setting by setting: (dose: 20.0 mg/kg/injection, schedule: Q01DX Z (ip), vehicle: methylcellulose (MC)) 117 % of control; (dose: 24.0 mg/kg/injection, schedule: Q01DX Z (sc), vehicle: carboxymethylcellulose (CMC)) 117 % of control; (dose: 40.0 mg/kg/injection, schedule: Q01DX Z (ip), vehicle: carboxymethylcellulose (CMC)) 155 % of control; (dose: 45.0 mg/kg/injection, schedule: Q01DX Z (oral), vehicle: carboxymethylcellulose (CMC)) 106 % of control; (dose: 48.0 mg/kg/injection, schedule: Q01DX Z (sc), vehicle: carboxymethylcellulose (CMC)) 101 % of control; (dose: 60.0 mg/kg/injection, schedule: Q01DX Z (ip), vehicle: carboxymethylcellulose (CMC)) 150 % of control. Moreover, the T/C reads like this: (dose: 60.0 mg/kg/injection, schedule: Q01DX Z (ip), vehicle: methylcellulose (MC)) 168 % of control; (dose: 90.0 mg/kg/injection, schedule: Q01DX Z (ip), vehicle: methylcellulose (MC)) 122 % of control; (dose: 90.0 mg/kg/injection, schedule: Q01DX Z (oral), vehicle: carboxymethylcellulose (CMC)) 105 % of control; (dose: 96.0 mg/kg/injection, schedule: Q01DX Z (sc), vehicle: carboxymethylcellulose (CMC)) 112 % of control; (dose: 135.0 mg/kg/injection, schedule: Q01DX Z (ip), vehicle: methylcellulose (MC)) 119 % of control; (dose: 180.0 mg/kg/injection, schedule: Q01DX Z (oral), vehicle: carboxymethylcellulose (CMC)) 118 % of control. Besides, the T/C (dose: 360.0 mg/kg/injection, schedule: Q01DX Z (oral), vehicle: carboxymethylcellulose (CMC)) is 114 % of control.
As to `Cc1ccc(S(=O)(=O)CCCl)cc1`, the T/C reads like this: under setting [4], 96 % of control; under setting [6], 100 % of control.
For `CC(=C=CC(c1ccccc1)(c1ccccc1)c1ccccc1)CC(c1ccccc1)(c1ccccc1)c1ccccc1`, the T/C is 96 % of control under setting [4], 95 % of control under setting [6] and 95 % of control under setting [8].
For `CCOC(=O)C(C(=O)OCC)C1c2ccccc2C([N+](=O)[O-])c2ccccc21` (configuration not stated), the T/C runs as follows: under setting [1], 91 % of control; under setting [3], 96 % of control; under setting [2], 96 % of control; under setting [5], 89 % of control; (dose: 400.0 mg/kg/injection, schedule: Q01DX001 (ip), vehicle: Klucel (hydroxypropylcellulose) (HPC)) 91 % of control; under setting [7], 103 % of control.
`CCOC(=O)/C(=C\c1ccccn1)C(C)=O`: the T/C was 102 % of control (dose: 25.0 mg/kg/injection, schedule: Q04DX003 (ip), vehicle: saline); 102 % of control (dose: 50.0 mg/kg/injection, schedule: Q04DX003 (ip), vehicle: saline); 102 % of control (dose: 100.0 mg/kg/injection, schedule: Q04DX003 (ip), vehicle: saline).
With `O=C(O)C1(O)c2cc(Br)ccc2-c2ccc(Br)cc21`, the T/C by setting is: (dose: 50.0 mg/kg/injection, schedule: Q01DX001 (ip), vehicle: carboxymethylcellulose (CMC)) 100 % of control; (dose: 100.0 mg/kg/injection, schedule: Q01DX001 (ip), vehicle: carboxymethylcellulose (CMC)) 97 % of control; (dose: 200.0 mg/kg/injection, schedule: Q01DX001 (ip), vehicle: carboxymethylcellulose (CMC)) 100 % of control; (dose: 400.0 mg/kg/injection, schedule: Q01DX001 (ip), vehicle: carboxymethylcellulose (CMC)) 92 % of control.
Consider `NC(CCCCNC(c1ccccc1)(c1ccccc1)c1ccccc1)C(=O)O` (configuration not stated), for which the T/C is 102 % of control (dose: 12.5 mg/kg/injection, schedule: Q01DX009 (ip), vehicle: saline); 101 % of control (dose: 25.0 mg/kg/injection, schedule: Q01DX009 (ip), vehicle: saline); 101 % of control (dose: 50.0 mg/kg/injection, schedule: Q01DX009 (ip), vehicle: saline); 97 % of control (dose: 100.0 mg/kg/injection, schedule: Q01DX009 (ip), vehicle: saline).
Consider `COc1ccc(CCN=C(N)CCl)cc1`, for which the T/C was 95 % of control (dose: 100.0 mg/kg/injection, schedule: Q04DX002 (ip), vehicle: saline) and 106 % of control (dose: 200.0 mg/kg/injection, schedule: Q04DX002 (ip), vehicle: saline).
For `Cc1c(/C=C(\C#N)c2ccc([N+](=O)[O-])cc2)c(=O)n(-c2ccccc2)n1C`, the T/C runs as follows: (dose: 100.0 mg/kg/injection, schedule: Q01DX009 (ip), vehicle: gum acacia) 93 % of control; (dose: 100.0 mg/kg/injection, schedule: Q04DX003 (ip), vehicle: gum acacia) 92 % of control; (dose: 200.0 mg/kg/injection, schedule: Q01DX009 (ip), vehicle: gum acacia) 90 % of control; (dose: 200.0 mg/kg/injection, schedule: Q04DX003 (ip), vehicle: gum acacia) 105 % of control; (dose: 400.0 mg/kg/injection, schedule: Q01DX009 (ip), vehicle: gum acacia) 89 % of control; (dose: 400.0 mg/kg/injection, schedule: Q04DX003 (ip), vehicle: gum acacia) 95 % of control.
Consider `CC(=O)N(C)NC(=O)c1ccccn1`, for which the T/C reads like this: (dose: 12.5 mg/kg/injection, schedule: Q01DX009 (ip), vehicle: water) 103 % of control; (dose: 25.0 mg/kg/injection, schedule: Q01DX009 (ip), vehicle: water) 103 % of control; (dose: 50.0 mg/kg/injection, schedule: Q01DX009 (ip), vehicle: water) 105 % of control.
`CN(C)c1ccc(NC(=S)Nc2ccc(N(C)C)cc2)cc1`: under “dose: 400.0 mg/kg/injection, schedule: Q01DX001 (ip), vehicle: saline with Tween-80”, the T/C is 88 % of control.
Take `CC(C)(Cl)Cc1ccccc1`: the T/C is 88 % of control under setting [9]; 103 % of control (dose: 100.0 mg/kg/injection, schedule: Q04DX003 (ip), vehicle: saline with Tween-80); 91 % of control under setting [10]; 105 % of control (dose: 200.0 mg/kg/injection, schedule: Q04DX003 (ip), vehicle: saline with Tween-80); 94 % of control (dose: 400.0 mg/kg/injection, schedule: Q04DX003 (ip), vehicle: saline with Tween-80).
Regarding `O=S(=O)(F)c1c(Cl)cccc1CBr`, the T/C is 100 % of control (dose: 25.0 mg/kg/injection, schedule: Q01DX009 (ip), vehicle: saline with Tween-80); 96 % of control (dose: 50.0 mg/kg/injection, schedule: Q01DX009 (ip), vehicle: saline with Tween-80); 86 % of control under setting [9].
Turning to `NC(Cc1ccc(O)cc1)C(=O)N/N=C/c1ccc(N(CCCl)CCCl)cc1` (configuration not stated), the T/C by setting is: (dose: 25.0 mg/kg/injection, schedule: Q01DX009 (ip), vehicle: Klucel (hydroxypropylcellulose) (HPC)) 101 % of control; (dose: 50.0 mg/kg/injection, schedule: Q01DX009 (ip), vehicle: Klucel (hydroxypropylcellulose) (HPC)) 113 % of control; under setting [3], 106 % of control; under setting [4], 107 % of control; under setting [6], 102 % of control.
On to `Cc1cccc(C)c1N(COCC(C)C)C(=O)CCl`, for which the T/C by setting is: under setting [9], 100 % of control; under setting [10], 100 % of control.
